Laboratory results as given in US7544814B2, “[3.2.0] Heterocyclic compounds and methods of using the same” (Nereus Pharmaceuticals, Inc., priority 2004, dated 2009).
Where “and” joins values, the source holds several entries; their conditions need not be identical. Identical values can stand only once. Like-named read-outs stand apart in the source and are kept apart here.

Columns and labels:
RPMI 8226 = experiment: Cell growth inhibition (resazurin), RPMI 8226; conditions: for EC50: Homo sapiens; for cytotoxicity against RPMI 8226, in words: from EC50 values
[1] = target: T1, caspase-like activity of purified rabbit muscle 20S proteasome (Oryctolagus cuniculus, UniProt A0A5F9DQW2); experiment: In vitro inhibition of 20S proteasome caspase-like activity (Z-LLE-AMC)
T1 sequence (A0A5F9DQW2 1-212): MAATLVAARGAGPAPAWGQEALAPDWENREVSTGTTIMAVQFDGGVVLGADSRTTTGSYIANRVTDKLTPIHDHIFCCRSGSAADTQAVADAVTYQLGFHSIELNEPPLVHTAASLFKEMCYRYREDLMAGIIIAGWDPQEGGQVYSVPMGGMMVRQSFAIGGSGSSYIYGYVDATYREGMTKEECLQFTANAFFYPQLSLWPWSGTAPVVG

[2] = target: T2, chymotrypsin-like activity of purified rabbit muscle 20S proteasome (Oryctolagus cuniculus, UniProt G1T4Q9); experiment: In vitro inhibition of 20S proteasome chymotrypsin-like activity (suc-LLVY-AMC)
T2 sequence (G1T4Q9 1-263): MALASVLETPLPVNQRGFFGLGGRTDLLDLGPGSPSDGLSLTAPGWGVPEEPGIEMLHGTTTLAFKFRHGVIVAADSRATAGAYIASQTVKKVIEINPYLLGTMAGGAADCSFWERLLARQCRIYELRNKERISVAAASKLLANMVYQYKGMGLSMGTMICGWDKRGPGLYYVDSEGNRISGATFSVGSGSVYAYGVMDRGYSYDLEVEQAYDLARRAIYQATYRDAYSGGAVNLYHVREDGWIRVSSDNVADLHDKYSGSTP

U266 = experiment: Cell growth inhibition (resazurin), U266; conditions: for EC50: 48 hours drug exposure; for cytotoxicity against U266, in words: from EC50 values
NF-κB = experiment: NF-κB-mediated luciferase reporter gene assay, HEK293 NF-κB/Luc cells, TNF-α stimulation; assay type: cell-based, human; conditions: for EC50: Homo sapiens; for effect on luciferase activity upon TNF-α stimulation, in words: pretreatment of NF-κB/Luc 293 cells
Outline: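 Cells seeded at 1.5×10^4/well in phenol-red free DMEM, pretreated 1 h with 8-point half-log compound dilutions (DMSO stocks), then stimulated with TNF-α (10 μl of 50 ng/ml solution) for 6 h. Luciferase read as RLU after 10 min with Steady Lite reagent at room temperature.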

[3] = target: T3, trypsin-like activity of purified rabbit muscle 20S proteasome (Oryctolagus cuniculus, UniProt G1SWK8); experiment: In vitro inhibition of 20S proteasome trypsin-like activity (Boc-LRR-AMC); conditions: under the conditions tested
T3 sequence (G1SWK8 1-271): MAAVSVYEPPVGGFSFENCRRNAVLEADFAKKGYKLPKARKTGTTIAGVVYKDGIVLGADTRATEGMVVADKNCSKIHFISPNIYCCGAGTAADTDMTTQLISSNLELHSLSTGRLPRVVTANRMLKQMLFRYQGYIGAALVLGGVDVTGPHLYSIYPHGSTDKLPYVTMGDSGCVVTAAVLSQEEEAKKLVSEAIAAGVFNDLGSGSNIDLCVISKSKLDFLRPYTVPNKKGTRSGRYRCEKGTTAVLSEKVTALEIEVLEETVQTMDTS

HL-60/MX2 = experiment: Cell growth inhibition (resazurin), multidrug resistant HL-60/MX2; conditions: from EC50 values
Description: Concentrations ranging from 6.32 μM to 2 nM were tested for II-2 and II-4.
HL-60/MX2 is a multidrug resistant tumor cell line derived from the human promyelocytic leukemia cell line, HL-60 and expresses reduced topoisomerase II activity. […] Mitoxantrone, the topoisomerase II targeting agent was included as a control.

MDA-MB-231 = experiment: Cell growth inhibition (resazurin), MDA-MB-231; conditions: from EC50 values
PC-3 = experiment: Cell growth inhibition (resazurin), PC-3; assay type: cell-based, human; conditions: from EC50 values
HT-29 = experiment: Cell growth inhibition (resazurin), HT-29; conditions: from EC50 values
MES-SA/Dx5 = experiment: Cell growth inhibition (resazurin), multidrug resistant MES-SA/Dx5; assay type: cell-based, human; conditions: from EC50 values
MES-SA = experiment: Cell growth inhibition (resazurin), MES-SA; assay type: cell-based, human; conditions: from EC50 values
B16-F10 = experiment: Cell growth inhibition (resazurin), B16-F10; conditions: from EC50 values
HL-60 = experiment: Cell growth inhibition (resazurin), HL-60; assay type: cell-based, human; conditions: from EC50 values
[4] = RPMI-8226, read-out: Cytotoxicity RPMI EC50, Table 12
[5] = Proteasome Caspase-like EC50, Table 12
[6] = EC50 Chymotrypsin-like, Table 6, values in nM
[7] = Proteasome Chymotrypsin-like EC50, Table 12
[8] = HEK293, read-out: NF-κB EC50, Table 12

SMILES	EC50 (RPMI 8226; [4])	cytotoxicity against RPMI 8226, in words (RPMI 8226)	EC50 [1, 5]	EC50 [2, 6]	EC50 [2, 7]	cytotoxicity against U266, in words (U266)	EC50 (NF-κB; [8])	effect on luciferase activity upon TNF-α stimulation, in words (NF-κB)	inhibition of the trypsin-like activity of the 20S proteasome, in words [3]	also measured
C[C@H]1C(=O)N[C@@]2(C(O)[C@@H]3C=CCCC3)C(=O)O[C@@]12C (single isomer, unassigned) [Formula II-20]	8510 ± 3260 nM	cytotoxic	1.42 µM	7.7 ± 3 nM	7.7 ± 3 nM	cytotoxic	849 ± 225 nM	dose-dependent decrease	able to inhibit	EC50 (RPMI 8226; RPMI-8226, 48 h, read-out: RPMI 8226 EC50, Table 2, 48 hours drug exposure, mean ± SD where n≥3): 8510 ± 3260 nM; EC50 ([1]; EC50 Caspase-like, Table 6, values in μM): 1.4 µM; EC50 ([1]; EC50 values, caspase-like activity, range in mixed units, summary of Table 6, range from nM to μM): 0.956 to 8.7 µM; EC50 (U266; Homo sapiens, U-266, 48 h, read-out: U266 EC50, Table 2): 310 nM; EC50 (U266; read-out: U266 EC50, Table 2): 442 nM
C[C@@]12OC(=O)[C@]1([C@@H](O)[C@@H]1C=CCCC1)NC(=O)[C@@H]2CCBr [Formula II-18]	6.3 nM	cytotoxic	0.286 µM and 0.213 µM	2.3 nM	2.3 nM and 2 nM	cytotoxic	11 nM	dose-dependent decrease	able to inhibit	cytotoxic activity against HL-60/MX2, in words (HL-60/MX2): retained cytotoxic activity; EC50 ([1]; EC50 Caspase-like, Table 6, values in nM): 0.286 µM and 0.213 µM; EC50 ([1]; EC50 values, caspase-like activity, summary of Table 6): 0.213 to 0.85 µM; cytotoxicity against MDA-MB-231, in words (MDA-MB-231): cytotoxic; EC50 ([2]; EC50 values, chymotrypsin-like activity, summary of Table 6): 2 to 11 nM; cytotoxicity against PC-3, in words (PC-3): cytotoxic; cytotoxicity against HT-29, in words (HT-29): cytotoxic; cytotoxic activity against MES-SA/Dx5, in words (MES-SA/Dx5): cytotoxic activity; cytotoxic activity against MES-SA, in words (MES-SA): cytotoxic activity; EC50 (NF-κB; HEK293, read-out: EC50, NF-κB-mediated luciferase reporter gene assay, Table 5, values in nM, 1 hr pretreatment, TNF-α 6 hr): 9 nM; cytotoxicity against B16-F10, in words (B16-F10): cytotoxic; cytotoxic activity against HL-60, in words (HL-60): retained cytotoxic activity
